Data: US20230086702A1, “SUBSTITUTED 2-AMINO-PYRAZOLYL-[1,2,4]TRIAZOLO[1,5A]PYRIDINE DERIVATIVES AND USE THEREOF” (The Johns Hopkins University, priority 2019, published 2023)
pIC50: −log10 of the molar value.

Experiments:
[1] = target: T1, DLK (Homo sapiens, UniProt Q12852); assay: DLK biochemical assay (TR-FRET, MKK7 phosphorylation)
T1 construct: 10 nM DLK, catalytic domain, Carna Biosiences; purchased Carna Biosciences ('Carna Biosiences' [sic])
T1 sequence (Q12852 125-366 limits assumed): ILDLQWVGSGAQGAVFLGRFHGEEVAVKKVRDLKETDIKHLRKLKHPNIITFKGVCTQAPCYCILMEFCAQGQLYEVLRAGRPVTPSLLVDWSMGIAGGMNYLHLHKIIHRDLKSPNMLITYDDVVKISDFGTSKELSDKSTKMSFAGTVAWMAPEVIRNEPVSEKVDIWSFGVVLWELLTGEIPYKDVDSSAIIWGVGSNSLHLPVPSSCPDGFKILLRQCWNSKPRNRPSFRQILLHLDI
How it was run: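 DLK catalytic domain (10 nM) phosphorylates His-MKK7 (15 nM) at 60 μM ATP for 90 min at RT in pH 7.5 Hepes buffer (final concentrations). Phospho-T275/S277 is detected by TR-FRET (Eu anti-phospho donor, XL665 anti-His acceptor) after 16 h at 37° C (1536 format) or 4° C (384 format).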

[2] = target: T2, LZK (Homo sapiens, UniProt O43283); assay: LZK biochemical assay (TR-FRET, MKK7 phosphorylation)
T2 construct: 10 nM LZK, catalytic domain, Carna Biosiences in assay buffer; purchased Carna Biosciences ('Carna Biosiences' [sic])
T2 sequence (O43283 168-409 limits assumed): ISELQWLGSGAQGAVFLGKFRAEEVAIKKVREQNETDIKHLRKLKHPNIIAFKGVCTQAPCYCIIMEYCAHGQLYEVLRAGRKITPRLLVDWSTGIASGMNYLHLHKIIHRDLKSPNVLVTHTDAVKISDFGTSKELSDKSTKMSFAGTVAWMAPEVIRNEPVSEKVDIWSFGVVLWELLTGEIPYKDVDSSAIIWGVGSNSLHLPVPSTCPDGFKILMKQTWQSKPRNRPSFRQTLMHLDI
How it was run: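 LZK catalytic domain (10 nM) phosphorylates His-MKK7 (15 nM) with 15 µM ATP, all final, for 90 min at RT in HEPES buffer pH 7.5 with MgCl2. Phospho-T275/S277 detected by TR-FRET (Eu anti-phospho donor, XL665 anti-His acceptor) after 16 h at 32 °C in EDTA stop buffer. Inhibition lowers the 665/Eu ratio.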

SMILES	pIC50 [1]	pIC50 [2]
Nc1nc2c(-c3ccn(CC(F)F)c(=O)c3)cc(-c3cnn(C(c4ccc(C(F)(F)F)nc4)C4CCOCC4)c3)cn2n1 (single isomer, unassigned) [II-173, 4-[2-Amino-6-(1-{tetrahydro-2H-pyran-4-yl[6-(trifluoromethyl)pyridin-3-yl]methyl}-1H-pyrazol-4-yl)[1,2,4]triazolo[1,5-a]pyridin-8-yl]-1-(2,2-difluoroethyl)pyridin-2(1H)-one]	7.96	7.60
Nc1nc2c(-c3ccn(CC(F)F)c(=O)c3)cc(-c3cnn(C(c4ccc(C(F)(F)F)nc4)C4CCOCC4)c3)cn2n1 (single isomer, unassigned) [II-174, 4-[2-Amino-6-(1-{tetrahydro-2H-pyran-4-yl[6-(trifluoromethyl)pyridin-3-yl]methyl}-1H-pyrazol-4-yl)[1,2,4]triazolo[1,5-a]pyridin-8-yl]-1-(2,2-difluoroethyl)pyridin-2(1H)-one]	9.00	8.37
Nc1nc2c(-c3ccn(CC(F)(F)F)c(=O)c3)cc(-c3cnn(C(c4ccc(C(F)(F)F)nc4)C4CCOCC4)c3)cn2n1 (single isomer, unassigned) [II-176, 4-[2-Amino-6-(1-{tetrahydro-2H-pyran-4-yl[6-(trifluoromethyl)pyridin-3-yl]methyl}-1H-pyrazol-4-yl)[1,2,4]triazolo[1,5-a]pyridin-8-yl]-1-(2,2,2-trifluoroethyl)pyridin-2(1H)-one]	8.80	8.25
Nc1nc2c(-c3ccn(CC(F)(F)F)c(=O)c3)cc(-c3cnn(C(c4ccc(C(F)(F)F)nc4)C4CCOCC4)c3)cn2n1 (single isomer, unassigned) [II-177, 4-[2-Amino-6-(1-{tetrahydro-2H-pyran-4-yl[6-(trifluoromethyl)pyridin-3-yl]methyl}-1H-pyrazol-4-yl)[1,2,4]triazolo[1,5-a]pyridin-8-yl]-1-(2,2,2-trifluoroethyl)pyridin-2(1H)-one]	8.00	7.48
Nc1nc2cc(-c3cnn(C(c4ccc(C(F)(F)F)nc4)C4CCOCC4)c3)cc(-c3ccc(=O)n(C(F)F)c3)n2n1 (single isomer, unassigned) [II-184, 5-[2-Amino-7-(1-{tetrahydro-2H-pyran-4-yl[6-(trifluoromethyl)pyridin-3-yl]methyl}-1H-pyrazol-4-yl)[1,2,4]triazolo[1,5-a]pyridin-5-yl]-1-(difluoromethyl)pyridin-2(1H)-one]	8.92	8.62
Nc1nc2cc(-c3cnn(C(c4ccc(C(F)(F)F)nc4)C4CCOCC4)c3)cc(-c3ccc(=O)n(CC(F)F)c3)n2n1 (single isomer, unassigned) [II-186, 5-[2-Amino-7-(1-{tetrahydro-2H-pyran-4-yl[6-(trifluoromethyl)pyridin-3-yl]methyl}-1H-pyrazol-4-yl)[1,2,4]triazolo[1,5-a]pyridin-5-yl]-1-(2,2-difluoroethyl)pyridin-2(1H)-one]	8.39	8.35
Nc1nc2cc(-c3cnn(C(c4ccc(C(F)(F)F)nc4)C4CCOCC4)c3)cc(-c3ccc(=O)n(CC(F)F)c3)n2n1 (single isomer, unassigned) [II-187, 5-[2-Amino-7-(1-{tetrahydro-2H-pyran-4-yl[6-(trifluoromethyl)pyridin-3-yl]methyl}-1H-pyrazol-4-yl)[1,2,4]triazolo[1,5-a]pyridin-5-yl]-1-(2,2-difluoroethyl)pyridin-2(1H)-one]	9.70	9.30
CCC(c1ccc(C(F)(F)F)nc1)n1cc(-c2cc(-c3ccc(=O)n(CC(F)(F)F)c3)n3nc(N)nc3c2)cn1 (single isomer, unassigned) [II-189, 5-[2-Amino-7-(1-{1-[6-(trifluoromethyl)pyridin-3-yl]propyl}-1H-pyrazol-4-yl)[1,2,4]triazolo[1,5-a]pyridin-5-yl]-1-(2,2,2-trifluoroethyl)pyridin-2(1H)-one]	7.82	7.49
Nc1nc2cc(-c3cnn(C(c4ccc(C(F)(F)F)nc4)C4CCOCC4)c3)cc(-c3cn(CC(F)(F)F)c(=O)cn3)n2n1 (single isomer, unassigned) [II-195, 5-[2-Amino-7-(1-{tetrahydro-2H-pyran-4-yl[6-(trifluoromethyl)pyridin-3-yl]methyl}-1H-pyrazol-4-yl)[1,2,4]triazolo[1,5-a]pyridin-5-yl]-1-(2,2,2-trifluoroethyl)pyrazin-2(1H)-one]	8.96	8.28
Nc1nc2cc(-c3cnn(C(c4ccc(C(F)(F)F)nc4)C4CCOCC4)c3)cc(-c3cn(CC(F)(F)F)c(=O)cn3)n2n1 (single isomer, unassigned) [II-196, 5-[2-Amino-7-(1-{tetrahydro-2H-pyran-4-yl[6-(trifluoromethyl)pyridin-3-yl]methyl}-1H-pyrazol-4-yl)[1,2,4]triazolo[1,5-a]pyridin-5-yl]-1-(2,2,2-trifluoroethyl)pyrazin-2(1H)-one]	7.80	7.30

Next, values leading:

pIC50 [1]	pIC50 [2]	SMILES
7.77	7.11	Nc1nc2c(-c3cn(CC(F)(F)F)c(=O)cn3)cc(-c3cnn(C(c4ccc(C(F)(F)F)nc4)C4CCOCC4)c3)cn2n1 (single isomer, unassigned) [II-168, 5-[2-Amino-6-(1-{tetrahydro-2H-pyran-4-yl[6-(trifluoromethyl)pyridin-3-yl]methyl}-1H-pyrazol-4-yl)[1,2,4]triazolo[1,5-a]pyridin-8-yl]-1-(2,2,2-trifluoroethyl)pyrazin-2(1H)-one]
7.14	6.66	CCC(c1ccc(C(F)(F)F)nc1)n1cc(-c2cc(-c3ccn(C)c(=O)c3)c3nc(N)nn3c2)cn1 (single isomer, unassigned) [II-170, 4-[2-Amino-6-(1-{1-[6-(trifluoromethyl)pyridin-3-yl]propyl}-1H-pyrazol-4-yl)[1,2,4]triazolo[1,5-a]pyridin-8-yl]-1-methylpyridin-2(1H)-one]
8.03	7.39	CCC(c1ccc(C(F)(F)F)nc1)n1cc(-c2cc(-c3ccn(C)c(=O)c3)c3nc(N)nn3c2)cn1 (single isomer, unassigned) [II-171, 4-[2-Amino-6-(1-{1-[6-(trifluoromethyl)pyridin-3-yl]propyl}-1H-pyrazol-4-yl)[1,2,4]triazolo[1,5-a]pyridin-8-yl]-1-methylpyridin-2(1H)-one]
7.47	7.10	CCC(c1ccc(C(F)(F)F)nc1)n1cc(-c2cc(-c3ccc(=O)n(C(F)F)c3)n3nc(N)nc3c2)cn1 (single isomer, unassigned) [II-180, 5-[2-Amino-7-(1-{1-[6-(trifluoromethyl)pyridin-3-yl]propyl}-1H-pyrazol-4-yl)[1,2,4]triazolo[1,5-a]pyridin-5-yl]-1-(difluoromethyl)pyridin-2(1H)-one]
8.57	8.27	CCC(c1ccc(C(F)(F)F)nc1)n1cc(-c2cc(-c3ccc(=O)n(C(F)F)c3)n3nc(N)nc3c2)cn1 (single isomer, unassigned) [II-181, 5-[2-Amino-7-(1-{1-[6-(trifluoromethyl)pyridin-3-yl]propyl}-1H-pyrazol-4-yl)[1,2,4]triazolo[1,5-a]pyridin-5-yl]-1-(difluoromethyl)pyridin-2(1H)-one]
7.66	7.72	Nc1nc2cc(-c3cnn(C(c4ccc(C(F)(F)F)nc4)C4CCOCC4)c3)cc(-c3ccc(=O)n(C(F)F)c3)n2n1 (single isomer, unassigned) [II-183, 5-[2-Amino-7-(1-{tetrahydro-2H-pyran-4-yl[6-(trifluoromethyl)pyridin-3-yl]methyl}-1H-pyrazol-4-yl)[1,2,4]triazolo[1,5-a]pyridin-5-yl]-1-(difluoromethyl)pyridin-2(1H)-one]
8.89	8.66	Nc1nc2cc(-c3cnn(C(c4ccc(C(F)(F)F)nc4)C4CCOCC4)c3)cc(-c3ccc(=O)n(CC(F)(F)F)c3)n2n1 (single isomer, unassigned) [II-192, 5-[2-Amino-7-(1-{tetrahydro-2H-pyran-4-yl[6-(trifluoromethyl)pyridin-3-yl]methyl}-1H-pyrazol-4-yl)[1,2,4]triazolo[1,5-a]pyridin-5-yl]-1-(2,2,2-trifluoroethyl)pyridin-2(1H)-one]
7.82	7.92	Nc1nc2cc(-c3cnn(C(c4ccc(C(F)(F)F)nc4)C4CCOCC4)c3)cc(-c3ccc(=O)n(CC(F)(F)F)c3)n2n1 (single isomer, unassigned) [II-193, 5-[2-Amino-7-(1-{tetrahydro-2H-pyran-4-yl[6-(trifluoromethyl)pyridin-3-yl]methyl}-1H-pyrazol-4-yl)[1,2,4]triazolo[1,5-a]pyridin-5-yl]-1-(2,2,2-trifluoroethyl)pyridin-2(1H)-one]
